Assay results as given in US4421687A, “Macbecin derivatives” (priority 1981, dated 1983).
Values after ≈ are worked out from the molar mass of the structure shown.

Assays:
Bacillus subtilis = assay: antibacterial activity (MIC) against Bacillus subtilis; type: cell-based
Staphylococcus aureus = assay: antibacterial activity (MIC) against Staphylococcus aureus; type: cell-based
[1] = acute toxicity (LD50), mouse, intraperitoneal; type: in vivo

MIC (Bacillus subtilis)	MIC (Staphylococcus aureus)	SMILES	LD50 ([1]; in vivo, ip, intraperitoneal, acute toxicity)	acute toxicity as compared with Macbecin I and II ([1]; intraperitoneal, compared with Macbecin I and II)	acute toxicity (in words) ([1]; ip, conclusion from the LD50)
50 to 100 µg/mL (≈ 91.5 to 183 µM)	50 to 100 µg/mL (≈ 91.5 to 183 µM)	COC1CC(C)C(OC)c2cc(O)cc(c2O)NC(=O)C(C)=CC=CC(C)C(OC(N)=O)C(C)=CC(C)C1O (centres unmarked) [E-3-R]	–	–	–
50 to 100 µg/mL (≈ 91.8 to 184 µM)	50 to 100 µg/mL (≈ 91.8 to 184 µM)	COC1CC(C)C(OC)C2=CC(=O)C=C(NC(=O)C(C)=CC=CC(C)C(OC(N)=O)C(C)=CC(C)C1O)C2=O (centres unmarked) [E-3]	–	–	–
50 to 100 µg/mL (≈ 91.8 to 184 µM)	50 to 100 µg/mL (≈ 91.8 to 184 µM)	COC1C2=CC(=O)C=C(NC(=O)C(C)=CC=CC(C)C(OC(N)=O)C(C)=CC(C)C(OC)C(O)CC1C)C2=O (centres unmarked) [E-5]	–	–	–

SMILES	MIC (Bacillus subtilis)	MIC (Staphylococcus aureus)	LD50 ([1]; in vivo, ip, intraperitoneal, acute toxicity)	acute toxicity as compared with Macbecin I and II ([1]; intraperitoneal, compared with Macbecin I and II)	acute toxicity (in words) ([1]; ip, conclusion from the LD50)
COC1c2cc(O)cc(c2O)NC(=O)/C(C)=C/C=C\C(C)C(OC(N)=O)/C(C)=C/C(C)C(OC)C(O)CC1C (centres unmarked) [E-5-R]	50 to 100 µg/mL (≈ 91.5 to 183 µM)	50 to 100 µg/mL (≈ 91.5 to 183 µM)	100 to 200 mg/kg	lower toxicity	low toxicity
